Holding throughout (type): in vivo
The test system of experiment [1] is Lolium perenne (LOLPE). The experiment in a line: B1 pre-emergence herbicidal activity. Also noted: key: 5=total damage to plant; 0=no damage to plant. The following applies: rate 1000 g/ha, evaluated after 13 days, score 0-5 (5=total damage, 0=no damage); for Control of weed species after pre-emergence application, LOLPE: Test 1a. As to the method:
(§1) Seeds of a variety of test species were sown in standard soil in pots: Triticum aestivium (TRZAW), Avena fatua (AVEFA), Alopecurus myosuroides (ALOMY), Echinochloa crus-galli (ECHCG), Lolium perenne (LOLPE), Zea mays (ZEAMX), Abutilon theophrasti (ABUTH), Amaranthus retroflexus (AMARE) and Setaria faberi (SETFA). After cultivation for one day (pre-emergence) under controlled conditions in a glasshouse (at 24/16° C., day/night; 14 hours light; 65% humidity), the plants were sprayed with an aqueous spray solution derived from the formulation of the technical active ingredient in acetone/water (50:50) solution containing 0.5% Tween 20 (polyoxyethelyene sorbitan monolaurate, CAS RN 9005-64-5). The test plants were then grown in a glasshouse under controlled conditions (at 24/16° C., day/night; 14 hours light; 65% humidity) and watered twice daily. After 13 days, the test was evaluated (5=total damage to plant; 0=no damage to plant).

In experiment [2] the test system is Zea mays (ZEAMX). The experiment in a line: B1 pre-emergence herbicidal activity. Also noted: key: 5=total damage to plant; 0=no damage to plant. The following applies: Test 1a, rate 1000 g/ha, evaluated after 13 days, score 0-5 (5=total damage, 0=no damage). How it is done:
as §1

Experiment [3] concerns Abutilon theophrasti (ABUTH). The experiment in a line: B1 pre-emergence herbicidal activity. Further details: key: 5=total damage to plant; 0=no damage to plant. To be noted: Test 1a, rate 1000 g/ha, evaluated after 13 days, score 0-5 (5=total damage, 0=no damage). How it is done: as §1
Experiment [4] relates to Amaranthus retroflexus (AMARE). Briefly: B1 pre-emergence herbicidal activity. To be noted: Test 1a, rate 1000 g/ha, evaluated after 13 days, score 0-5 (5=total damage, 0=no damage). Further details: key: 5=total damage to plant; 0=no damage to plant. How it is done:
as §1

Experiment [5] has as its system Abutilon theophrasti (ABUTH). Briefly: B2 post-emergence herbicidal activity. To be noted: Test 2a, rate 1000 g/ha, evaluated after 13 days, score 0-5 (5=total damage, 0=no damage). How it is done:
(§2) Seeds of a variety of test species were sown in standard soil in pots: Triticum aestivium (TRZAW), Avena fatua (AVEFA), Alopecurus myosuroides (ALOMY), Echinochloa crus-galli (ECHCG), Lolium perenne (LOLPE), Zea mays (ZEAMX), Abutilon theophrasti (ABUTH), Amaranthus retroflexus (AMARE) and Setaria faberi (SETFA). After 8 days cultivation (post-emergence) under controlled conditions in a glasshouse (at 24/16° C., day/night; 14 hours light; 65% humidity), the plants were sprayed with an aqueous spray solution derived from the formulation of the technical active ingredient in acetone/water (50:50) solution containing 0.5% Tween 20 (polyoxyethelyene sorbitan monolaurate, CAS RN 9005-64-5). The test plants were then grown in a glasshouse under controlled conditions (at 24/16° C., day/night; 14 hours light; 65% humidity) and watered twice daily. After 13 days, the test was evaluated (5=total damage to plant; 0=no damage to plant).

For experiment [6], the system named is Setaria faberi (SETFA). Briefly: B1 pre-emergence herbicidal activity. To be noted: rate 1000 g/ha, evaluated after 13 days, score 0-5 (5=total damage, 0=no damage); for Control of weed species after pre-emergence application, SETFA: Test 1a. As to the method:
as §1

Experiment [7] concerns Echinochloa crus-galli (ECHCG). Briefly: B1 pre-emergence herbicidal activity. The following applies: rate 1000 g/ha, evaluated after 13 days, score 0-5 (5=total damage, 0=no damage); for Control of weed species after pre-emergence application, ECHCG: Test 1a. As to the method: as §1
Experiment [8] deals with Echinochloa crus-galli (ECHCG). The experiment in a line: B2 post-emergence herbicidal activity. Also noted: key: 5=total damage to plant; 0=no damage to plant. To be noted: rate 1000 g/ha, evaluated after 13 days, score 0-5 (5=total damage, 0=no damage). How it is done: as §2
For experiment [9], the system named is Lolium perenne (LOLPE). The experiment in a line: B2 post-emergence herbicidal activity. The following applies: rate 1000 g/ha, evaluated after 13 days, score 0-5 (5=total damage, 0=no damage). Further details: key: 5=total damage to plant; 0=no damage to plant. As to the method: as §2
Experiment [10] has as its system Zea mays (ZEAMX). Briefly: B2 post-emergence herbicidal activity. Also noted: key: 5=total damage to plant; 0=no damage to plant. To be noted: Test 2a, rate 1000 g/ha, evaluated after 13 days, score 0-5 (5=total damage, 0=no damage). How it is done: as §2
Experiment [11] concerns Setaria faberi (SETFA). Briefly: B2 post-emergence herbicidal activity. Further details: key: 5=total damage to plant; 0=no damage to plant. To be noted: rate 1000 g/ha, evaluated after 13 days, score 0-5 (5=total damage, 0=no damage). How it is done:
as §2

Experiment [12] has as its system Amaranthus retroflexus (AMARE). Briefly: B2 post-emergence herbicidal activity. Also noted: key: 5=total damage to plant; 0=no damage to plant. To be noted: Test 2a, rate 1000 g/ha, evaluated after 13 days, score 0-5 (5=total damage, 0=no damage). How it is done: as §2
Experiment [13] relates to Triticum aestivium (TRZAW). Briefly: B1 pre-emergence herbicidal activity. Also noted: key: 5=total damage to plant; 0=no damage to plant. The following applies: Test 1b, rate 1000 g/ha, evaluated after 13 days, score 0-5 (5=total damage, 0=no damage). How it is done: as §1
Experiment [14] deals with Avena fatua (AVEFA). Briefly: B1 pre-emergence herbicidal activity. Further details: key: 5=total damage to plant; 0=no damage to plant. The following applies: Test 1b, rate 1000 g/ha, evaluated after 13 days, score 0-5 (5=total damage, 0=no damage). As to the method:
as §1

Experiment [15] concerns Alopecurus myosuroides (ALOMY). Briefly: B1 pre-emergence herbicidal activity. To be noted: Test 1b, rate 1000 g/ha, evaluated after 13 days, score 0-5 (5=total damage, 0=no damage). Also noted: key: 5=total damage to plant; 0=no damage to plant. How it is done:
as §1

The test system of experiment [16] is Triticum aestivium (TRZAW). Briefly: B2 post-emergence herbicidal activity. Further details: key: 5=total damage to plant; 0=no damage to plant. To be noted: Test 2b, rate 1000 g/ha, evaluated after 13 days, score 0-5 (5=total damage, 0=no damage). As to the method: as §2
Experiment [17] deals with Avena fatua (AVEFA). Briefly: B2 post-emergence herbicidal activity. Also noted: key: 5=total damage to plant; 0=no damage to plant. The following applies: Test 2b, rate 1000 g/ha, evaluated after 13 days, score 0-5 (5=total damage, 0=no damage). How it is done:
as §2

The subject of experiment [18] is Alopecurus myosuroides (ALOMY). Briefly: B2 post-emergence herbicidal activity. Further details: key: 5=total damage to plant; 0=no damage to plant. To be noted: Test 2b, rate 1000 g/ha, evaluated after 13 days, score 0-5 (5=total damage, 0=no damage). How it is done:
as §2

The text below walks through data of patent US20200288711A1, “Pyrimidin-4-Carbamate or Urea Derivatives As Herbicides” (Syngenta Participations AG, priority 2017, published 2020).

Regarding `Cc1nc(-c2cncc(F)c2)ncc1NC(=O)OC(C)(C)C` [Compound E1, tert-butyl N-[2-(5-fluoro-3-pyridyl)-4-methyl-pyrimidin-5-yl]carbamate], the “Control of weed species after pre-emergence application, LOLPE” value in [1] is listed as 1. The “Control of weed species after pre-emergence application, ZEAMX” value in experiment [2] is 5. Also, the “Control of weed species after pre-emergence application, ABUTH” value in experiment [3] worked out at 0. Moreover, the “Control of weed species after pre-emergence application, AMARE” value in experiment [4] is 0. Further, in experiment [5], the “Control of weed species after post-emergence application, ABUTH” value came to 1. Moreover, the “Control of weed species after pre-emergence application, SETFA” value in experiment [6] is 4. For the same compound, in experiment [7], the “Control of weed species after pre-emergence application, ECHCG” value is recorded as 4. The “Control of weed species after post-emergence application, ECHCG” value in [8] (Test 2a) was determined as 4. Further, the “Control of weed species after post-emergence application, LOLPE” value in experiment [9] (Test 2a) stood at 2. In addition, the “Control of weed species after post-emergence application, ZEAMX” value in [10] is 5. Moreover, in [11] (Test 2a), the “Control of weed species after post-emergence application, SETFA” value was 5. In addition, the “Control of weed species after post-emergence application, AMARE” value in [12] came to 2.

Consider `Cc1nc(-c2cncc(F)c2)ncc1N(C)C(=O)OC(C)(C)C` [Compound E2, tert-butyl N-[2-(5-fluoro-3-pyridyl)-4-methyl-pyrimidin-5-yl]-N-methyl-carbamate], for which the “Control of weed species after pre-emergence application, LOLPE” value in experiment [1] is 0. Moreover, the “Control of weed species after pre-emergence application, ZEAMX” value in experiment [2] amounted to 4. The “Control of weed species after pre-emergence application, ABUTH” value in [3] stood at 0. Besides, in experiment [4], the “Control of weed species after pre-emergence application, AMARE” value is 0. Moreover, the “Control of weed species after post-emergence application, ABUTH” value in [5] is recorded as 1. In addition, the “Control of weed species after pre-emergence application, SETFA” value in [6] is 4. For the same compound, the “Control of weed species after pre-emergence application, ECHCG” value in experiment [7] amounted to 2. Further, in experiment [8] (Test 2a), the “Control of weed species after post-emergence application, ECHCG” value is 5. For the same compound, the “Control of weed species after post-emergence application, LOLPE” value in experiment [9] (Test 2a) is 2. The “Control of weed species after post-emergence application, ZEAMX” value in experiment [10] came to 5. Further, the “Control of weed species after post-emergence application, SETFA” value in [11] (Test 2a) is reported as 5. In experiment [12], the “Control of weed species after post-emergence application, AMARE” value is 0.

Consider `CC(C)OC(=O)N(C(=O)OC(C)C)c1cnc(-c2cncc(F)c2)nc1C(F)(F)F` [Compound E22], for which the “Pre-emergence herbicidal activity, TRAZW” value in experiment [13] was determined as 0. For the same compound, the “Pre-emergence herbicidal activity, LOLPE” value in [1] (Test 1b) stood at 0. For the same compound, in [14], the “Pre-emergence herbicidal activity, AVEFA” value is on record as 0. For the same compound, in [15], the “Pre-emergence herbicidal activity, ALOMY” value amounted to 0. For the same compound, in experiment [6] (Test 1b), the “Pre-emergence herbicidal activity, SETFA” value came out at 4. Also, in [7] (Test 1b), the “Pre-emergence herbicidal activity, ECHCG” value stood at 3. Moreover, the “Control of weed species after post-emergence application, ECHCG” value in [8] (Test 2b) turned out to be 5. For the same compound, in experiment [16], the “Control of weed species after post-emergence application, TRAZW” value is listed as 4. For the same compound, the “Control of weed species after post-emergence application, LOLPE” value in experiment [9] (Test 2b) is recorded as 4. For the same compound, the “Control of weed species after post-emergence application, AVEFA” value in experiment [17] was 0. In addition, the “Control of weed species after post-emergence application, SETFA” value in [11] (Test 2b) is reported as 1. Also, the “Control of weed species after post-emergence application, ALOMY” value in experiment [18] amounted to 0.
